Square brackets hold non-standard residues; d marks the D form. Peptide text beside a SMILES is read from it. * marks the point of attachment. Pyrrolidino(3-NH2-3-COOH) = NC1(C(=O)O)CCN(*)C1; dTic = O=C(O)[C@H]1Cc2ccccc2CN1
How the values were obtained:
Assay in all cases: Opioid Receptor Binding Assay
[1] = molecular target: Delta-type opioid receptor (Homo sapiens, UniProt P41143)
Procedure: (§1) The assay buffers used for opioid receptor binding studies were 50 mM Tris HCl (pH 7.4) for KOR, 50 mM Tris HCl (pH 7.4) with 5 mM MgCl2 for MOR, and 50 mM Tris HCl (pH 7.4) with 10 mM MgCl2 plus 1 mM EDTA for DOR. Wash buffer contained 50 mM Tris HCl at pH 7.4. […] DADLE, which were used as the competing radioligands for mu, kappa and delta receptors, respectively.

[2] = molecular target: Kappa-type opioid receptor (Homo sapiens, UniProt P41145)
Procedure: as §1

Mu-type opioid receptor = Mu-type opioid receptor (Homo sapiens, UniProt P35372)
Sequence of Mu-type opioid receptor (P35372 whole entry): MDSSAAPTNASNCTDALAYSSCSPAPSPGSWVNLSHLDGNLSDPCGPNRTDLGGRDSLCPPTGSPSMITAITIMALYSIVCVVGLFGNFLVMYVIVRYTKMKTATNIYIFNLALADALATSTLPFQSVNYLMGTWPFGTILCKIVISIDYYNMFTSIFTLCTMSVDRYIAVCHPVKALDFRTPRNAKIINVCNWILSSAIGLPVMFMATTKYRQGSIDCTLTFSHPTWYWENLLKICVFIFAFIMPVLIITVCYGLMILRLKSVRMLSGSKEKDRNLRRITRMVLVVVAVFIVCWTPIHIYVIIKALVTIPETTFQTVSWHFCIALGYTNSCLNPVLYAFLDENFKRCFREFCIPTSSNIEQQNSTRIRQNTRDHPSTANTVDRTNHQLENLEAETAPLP
Procedure: as §1

Sequence of Delta-type opioid receptor (P41143 whole entry): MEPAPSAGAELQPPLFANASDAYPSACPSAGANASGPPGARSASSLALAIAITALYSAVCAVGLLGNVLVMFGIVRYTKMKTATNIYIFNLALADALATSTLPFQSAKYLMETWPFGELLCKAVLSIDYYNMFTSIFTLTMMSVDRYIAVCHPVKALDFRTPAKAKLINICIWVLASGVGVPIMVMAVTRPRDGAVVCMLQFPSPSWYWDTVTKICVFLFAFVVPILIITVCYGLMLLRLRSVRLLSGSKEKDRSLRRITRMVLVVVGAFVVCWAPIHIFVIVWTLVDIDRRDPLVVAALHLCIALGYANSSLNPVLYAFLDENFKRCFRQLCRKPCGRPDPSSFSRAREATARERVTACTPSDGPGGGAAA
Sequence of Kappa-type opioid receptor (P41145 whole entry): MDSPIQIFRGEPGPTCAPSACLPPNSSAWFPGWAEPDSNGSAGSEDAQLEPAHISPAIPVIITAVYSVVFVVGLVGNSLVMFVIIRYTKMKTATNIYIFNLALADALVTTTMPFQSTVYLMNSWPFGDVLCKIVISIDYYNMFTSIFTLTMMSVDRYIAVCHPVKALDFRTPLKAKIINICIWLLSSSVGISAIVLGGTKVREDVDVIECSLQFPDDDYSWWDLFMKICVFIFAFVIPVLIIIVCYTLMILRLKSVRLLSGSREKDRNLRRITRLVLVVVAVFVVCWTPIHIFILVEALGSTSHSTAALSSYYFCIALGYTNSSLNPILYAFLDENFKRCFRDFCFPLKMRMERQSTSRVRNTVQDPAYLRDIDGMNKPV

Row | Compound | IC50 [1] | IC50 [2] | IC50 (Mu-type opioid receptor)
1 | CC(C)C[C@@H](NC(=O)[C@@H](Cc1ccccc1)NC(=O)[C@H](N)Cc1ccccc1)C(=O)N[C@H](CCCCN)C(=O)NCc1cccc(C(=O)O)n1 [US12215173, Compound 13-6] | > 10 µM | 0.00945 µM | > 10 µM
2 | CC(C)C[C@@H](NC(=O)[C@@H](Cc1ccccc1)NC(=O)[C@H](N)Cc1ccccc1)C(=O)N[C@H](CCCCN)C(=O)NCCC[C@H](N)C(=O)O [US12215173, Compound 13-44] | > 10 µM | 0.00046 µM | > 10 µM
3 | CC(C)C[C@@H](NC(=O)[C@@H](Cc1ccccc1)NC(=O)[C@H](N)Cc1ccccc1)C(=O)N[C@H](CCCCN)C(=O)N1CCC(O)(CO)CC1 [US12215173, Compound 13-65] | > 10 µM | 0.00045 µM | > 10 µM
4 | COC(=O)C1(N)CCN(C(=O)[C@@H](CCCCN)NC(=O)[C@H](NC(=O)[C@@H](Cc2ccccc2)NC(=O)[C@H](N)Cc2ccccc2)C(C)(C)C)CC1 [US12215173, Compound 100] | > 10 µM | 0.013 µM | > 10 µM
5 | COC(=O)C1(N)CCN(C(=O)[C@@H](CCCCN)NC(=O)[C@H](NC(=O)[C@@H](Cc2ccccc2)NC(=O)[C@H](N)Cc2ccccc2)C(C)(C)C)C1 (stereo partly specified) [US12215173, Compound 103] | > 10 µM | 0.0144 µM | > 10 µM
6 | CC(C)C[C@@H](NC(=O)[C@@H](Cc1ccccc1)NC(=O)[C@H]1Cc2ccccc2CN1)C(=O)N[C@H](CCCCN)C(=O)N1CCC(N)(C(=O)O)C1 (stereo partly drawn) [US12215173, Compound 169] (H-[dTic][dF][dL][dK]-{Pyrrolidino(3-NH2-3-COOH)}) | – | 0.0888 µM | –
7 | COC(=O)C1(N)CCN(C(=O)[C@@H](CCCCN)NC(=O)[C@@H](CC(C)C)NC(=O)[C@@H](Cc2ccccc2)NC(=O)[C@H]2Cc3ccccc3CN2)CC1 [US12215173, Compound 171] | > 10 µM | 0.00083 µM | > 10 µM
8 | CC(C)C[C@@H](NC(=O)[C@@H](Cc1ccccc1)NC(=O)[C@H]1Cc2ccccc2CN1)C(=O)N[C@H](CCCCN)C(=O)N1CCC(N)(C(=O)O)CC1 [US12215173, Compound 172] | > 10 µM | 0.00402 µM | > 10 µM
9 | COC(=O)C1(N)CCN(C(=O)[C@@H](CCCCN)NC(=O)[C@@H](CC(C)C)NC(=O)[C@@H](Cc2ccccc2)NC(=O)[C@H](N)Cc2ccc(F)cc2)C1 (stereo partly specified) [US12215173, Compound 181] | > 10 µM | 0.0004 µM | > 10 µM
10 | COC(=O)C1(N)CCN(C(=O)[C@@H](CCCCN)NC(=O)[C@@H](CC(C)C)NC(=O)[C@@H](Cc2ccccc2)NC(=O)[C@H](N)Cc2ccc(F)cc2)CC1 [US12215173, Compound 184] | > 10 µM | 0.00025 µM | 8.09 µM
11 | COC(=O)C1(N)CCN(C(=O)[C@@H](CCCCN)NC(=O)[C@@H](CC(C)C)NC(=O)[C@@H](Cc2ccccc2)NC(=O)[C@H](N)Cc2ccc(C(F)(F)F)cc2)C1 (stereo partly specified) [US12215173, Compound 194] | > 10 µM | 0.00407 µM | 7.34 µM

From BindingDB's records for patent US12215173 (Humanwell Pharmaceutical US, 2025)
